Measured values as given in patent publication US9193699B2, “Apoptosis inducing compounds” (INSTITUT NATIONAL DE LA SANTE ET DE LA RECHERCHE MEDICALE …, priority 2011, dated 2015).
pIC50: −log10 of the molar value.

What was measured:
[1] = tested on: Human normal mammary epithelial HME-1 cells; experiment: Effect on growth of normal cells (alamar blue), HME-1; assay type: cell-based; settings: HME1, calculated on the basis of cell growth inhibition
Procedure: (§1) All biological experiments (Examples 2 to 9) have been performed with recommended cell line specific culture medium. For SUM149 and L226, culture medium is supplemented with 10% Fetal Calf Serum. For HME-1 and MCF-10A, culture medium is supplemented with 5% Horse Serum.
(§2) Human normal mammary epithelial HME-1 cells were plated in a 96 well plate at 3000 cells/100 μL at 37° C. in 5% CO2. Serial dilutions of drugs (compounds 1, 3 or 4) ranging from 20 μM to 300 nM were added at day 0 and day 3. The number of viable cells was determined in triplicate at day 5 by incubating 10 μL of the alamar blue staining solution for 2 hours at 37° C. (FIG. 4).
(§3) IC50 values of compounds 1-14 for the inhibition of MCF-10A and HME-1 normal cells growth were also measured (according to the experimental procedure of Examples 4 and 5): […]

[2] = tested on: caspase-3 and caspase-7 in L226 cells; experiment: Caspase 3/7 activation (Caspase-Glo 3/7) in L226 tumor cells; assay type: cell-based; settings: Homo sapiens, R=RLU at 20 μM/RLU at 0 μM, 24 h, read-out: Caspase 3/7 activation R (RLU fold increase from untreated cells)
Procedure: (§4) Human breast tumor L226 cells were plated in a 96 well plate at 10000 cells/100 μL at 37° C. in 5% CO2. Serial dilutions of drugs (compounds 1, 3 or 4) ranging from 20 μM to 300 nM were added at day 0. Active caspase-3 and caspase-7 were measured in triplicate after 24 h treatment by incubating 50 μL of the Caspase-Glo 3/7 reagent for 60 min at 25° C. This reagent containing the proluminescent tetrapeptide sequence DEVD in a cell lysis buffer (Promega) (FIG. 7).
(§5) Caspase 3/7 activation in SUM149 and L226 tumor cells was measured.
(§6) The calculated values R correspond to Relative Luminescence Units (RLU) fold increase from untreated cells (R=RLU at 20 μM/RLU at 0 μM).

[3] = tested on: Human normal mammary epithelial MCF-10A cells; experiment: Effect on growth of normal cells (alamar blue), MCF-10A; assay type: cell-based; settings: calculated on the basis of cell growth inhibition
Procedure: as §1
as §2, with “MCF-10A” for “HME-1”, “5).” for “4).”
as §3

[4] = tested on: Human breast tumor L226 cells; experiment: Inhibition of tumor cell growth (alamar blue), L226; assay type: cell-based; settings: 120 h, calculated on the basis of cell growth inhibition, day 5, alamar blue
Procedure: as §1
(§7) Human breast tumor L226 cells (Inflammatory Breast Cancer (IBC) of ERB-B2 subtype) were plated in a 96 well plate at 3000 cells/100 μL at 37° C. in 5% CO2. Serial dilutions of drugs (compounds 1, 3 or 4) ranging from 20 μM to 300 nM were added at day 0 and day 3. The number of viable cells was determined in triplicate at day 5 by incubating 10 μL of the alamar blue staining solution for 2 hours at 37° C. (FIG. 3).
IC50 values of compounds 1-14 for the inhibition of SUM149 and L226 tumor cells growth were measured (according to the experimental procedure of Examples 2 and 3): […]

[5] = tested on: caspase-3 and caspase-7 in SUM149 cells; experiment: Caspase 3/7 activation (Caspase-Glo 3/7) in SUM149 tumor cells; assay type: cell-based; settings: Homo sapiens, R=RLU at 20 μM/RLU at 0 μM, 24 h, read-out: Caspase 3/7 activation R (RLU fold increase from untreated cells)
Procedure: as §4, with “SUM149” for “L226”, “6).” for “7).”
as §5, §6

[6] = tested on: tumors derived from MMTC-ErbB2/neu mice; experiment: TUNEL assay of tumor apoptosis in MMTV-ErB2/Neu mice; assay type: in vivo; settings: 100 mg/kg for 30 days
Procedure: DNA fragmentation in apoptotic cells was analyzed by the TUNEL assay (ApopTag detection kit, Millipore) as recommended by the manufacturer.
Briefly, 4 μm sections of paraffin-embedded fixed tissue from tumors derived from MMTC-ErbB2/neu mice treated with vehicle or with Compound 12, 4 or 8 (100 mg/kg) for 30 days, were deparaffined with successive histolemon and ethanol washes, then treated with 20 μg/mL proteinase K for 15 min at room temperature. Endogenous peroxidise was quenched with 3% hydrogen peroxide. […] Coloration was performed using the diaminobenzidine mixed substrate (Dako). Counterstaining was done with a solution of 1% methyl green for 5 min at room temperature. After distilled water and N-butanol washes, specimens were mounted in Pertex medium (CellPath). Observations were made using the Leica DMD108 digital microimaging device (Leica Microsystems GmbH).

[7] = tested on: Human breast tumor SUM149 cells; experiment: Inhibition of tumor cell growth (alamar blue), SUM149; assay type: cell-based; settings: 120 h, calculated on the basis of cell growth inhibition, day 5, alamar blue, read-out: IC50 for the inhibition of SUM149 tumor cells growth
Procedure: as §1
as §7, with “SUM149” for “L226”, “basal” for “ERB-B2”, “Compounds” for “Serial dilutions of drugs (compounds”, “3, 4, 5, 6, 7, 8, 9, 10, 11, 12, 13, 14 at 10” for “3 or 4) ranging from 20”, “μM” for “μM to 300 nM”, “1).” for “3).”
as §2, with “breast tumor SUM149” for “normal mammary epithelial HME-1”, “2).” for “4).”
IC50 values of compounds 1-14 for the inhibition of SUM149 and L226 tumor cells growth were measured (according to the experimental procedure of Examples 2 and 3):
Human breast tumor SUM149 cells were plated in a 96 well plate at 3000 cells/100 μL at 37° C. in 5% CO2 in recommended medium containing 10% FCS or in synthetic medium without FCS. Serial dilutions of drug (compound 4) ranging from 10 μM to 0.16 μM were added at day 0 and day 3. The number of viable cells was determined in triplicate at day 5 by incubating 10 μL of the alamar blue staining solution for 2 hours at 37° C. (FIG. 11). The […] in recommended medium containing 10% FCS was measured at 2 μM, while it was measured at 0.6 μM without FCS.

[8] = tested on: caspase-3 and caspase-7 in MCF-10A cells; experiment: Caspase 3/7 activation (Caspase-Glo 3/7) in MCF-10A normal cells; assay type: cell-based; settings: Homo sapiens, R=RLU at 20 μM/RLU at 0 μM, 24 h, read-out: Caspase 3/7 activation R (RLU fold increase from untreated cells)
Procedure: as §4, with “normal mammary epithelial MCF-10A” for “breast tumor L226”, “9).” for “7).”
as §6
(§8) Caspase 3/7 activation in MCF-10A and HME-1 normal cells was also measured.

[9] = tested on: Human breast tumor SUM149 cells; experiment: Annexin V/7-AAD apoptosis with or without Z-VAD-FMK; assay type: cell-based; settings: 2.5 to 20 μM, 48 h, with Z-VAD-FMK pan-caspases inhibitor
Procedure: Human breast tumor SUM149 cells were plated in dishes at a concentration of 10^6 cells/[…] Cells were treated with compound 3 or compound 4 (2.5 to 20 μM) for 48 h, with or without Z-VAD-FMK, a pan-caspases inhibitor. Cells were double stained with annexinV-FITC and 7-AAD to measure cell apoptosis.

[10] = tested on: caspase-3 and caspase-7 in HME-1 cells; experiment: Caspase 3/7 activation (Caspase-Glo 3/7) in HME-1 normal cells; assay type: cell-based; settings: Homo sapiens, HME1, R=RLU at 20 μM/RLU at 0 μM, 24 h, read-out: Caspase 3/7 activation R (RLU fold increase from untreated cells)
Procedure: as §4, with “normal mammary epithelial HME-1” for “breast tumor L226”, “8).” for “7).”
as §6, §8

pIC50 [4]	pIC50 [7]	Structure (SMILES)	pIC50 [1]	fold induction at 20 µM [2]	pIC50 [3]	fold induction at 20 µM [5]	percentage of cells having TdT positive nuclei in tumors [6]	fold induction at 20 µM [8]	effect of Z-VAD treatment on compound induced apoptosis (Annexin V positive cells) [9]	fold induction at 20 µM [10]
5.30	5.12	CCc1ccc(S(=O)(=O)N2CCSC(C)(C)[C@@H]2C(=O)NO)cc1 [Compound 8, (3S)—N-hydroxy-4-[(4-ethylphenyl)sulfonyl]-2,2-dimethyl-3-thiomorpholine carboxamide]	< 4.70	2.3	< 4.70	5.7	rare			
5.60	5.60	CC(C)c1ccc(S(=O)(=O)N2CCSC(C)(C)[C@@H]2C(=O)NO)cc1 [Compound 3, (3S)—N-hydroxy-4-[(4-isopropylphenyl)sulfonyl]-2,2-dimethyl-3-thiomorpholine carboxamide]	< 4.70	2.1	< 4.70	6.3		1	fully impaired	1
